Results as given in patent US7414049B2, “4-oxo-2,3,4,5-tetrahydro-benzo[b][1,4]diazepine derivatives” (Hoffmann-La Roche Inc., priority 2006, dated 2008).

Legend:
[1] = Microsome incubation, metabolic stability (human); type: in vitro ADME; conditions: for microsomal CLint at 10 μM: pH 7.4, human liver microsomes 2.0 mg prot/mL, test compound 10 μM, 37° C., read-out: Intrinsic clearance (human)
Description: The compounds of formula I of the present invention are further characterized by high metabolic stability. This parameter is a prerequisite for good bioavailability, which is necessary to obtain medicaments with acceptable in-vivo activity. The metabolic stability has been tested by the following method:
Incubation mixtures consisted of liver microsomes (rat 1.0 mg prot/mL or human 2.0 mg prot/mL), test compound 10 μM, MgCl2 (3.3 mM), and an NADPH regenerating system consisting of glucose-6-phosphate dehydrogenase, NADPH and glucose-6-phosphate (equivalent to 1 mM NADPH) in a total volume of 1.0 mL of potassium phosphate buffer 100 mM pH 7.4. Reactions were initiated by addition of the NADPH regenerating system at 37° C. At the time of 1, 5, 9, 13, 17, 21, 25, and 29 min a 5 μL aliquot was directly analysed on a HPLC-MS/MS system consisting of a HP 1100 quaternary pump with degasser and a PE-Sciex API-2000 MS/MS spectrometer. The analytical column was a Waters Symmetry Shield RP8 (2.1*50 mm with a […] particle size). A polarity non linear gradient from phase A (MeOH/Ac. Form. 1% 20/80) to phase B (MeOH) was applied for a total run time of 2 minutes at a flow rate of 0.25 mL/min. The PE-Sciex API-2000 MS/MS spectrometer was used for detection of the parent compound. In vivo metabolic clearance was predicted according to published procedures [Houston, Biochem. Pharmacol. 47:1469-1479 (1994)]. In brief, the intrinsic clearance (Clearance, see table below) is calculated from the measured in vitro half-life taking into account incubation volume and microsomal protein used for the in vitro incubation. The intrinsic clearance is expressed in terms of μl/min/mg microsomal protein. For in vivo extrapolations, the hepatic extraction ratio (E) was calculated. Here it is reported the % MAB value which is equal to 1-E. The MAB (maximal achievable bioavailability) values express the maximal bioavailability that one can achieve with the given clearance values.

[2] = Microsome incubation, metabolic stability (mouse); type: in vitro ADME; conditions: for microsomal CLint at 10 μM: pH 7.4, liver microsomes, test compound 10 μM, 37° C., read-out: Intrinsic clearance (mouse)
[3] = maximal achievable bioavailability = 1-E, extrapolated from intrinsic clearance

| SMILES | MAB (human) [1, 3] | microsomal CLint at 10 μM [1] | MAB (mouse) [2, 3] | microsomal CLint at 10 μM [2] | MAB (human) ([1]; comparison table) | MAB (mouse) ([2]; comparison table) |
| --- | --- | --- | --- | --- | --- | --- |
| CC(O)(C(=O)NCC(F)(F)C(F)(F)F)C(=O)N[C@H]1CN(CCO)c2ccccc2NC1=O (mixture of isomers) [Example 7, (RS)-2-Hydroxy-N-[(S)-1-(2-hydroxy-ethyl)-4-oxo-2,3,4,5-tetrahydro-1H-benzo[b][1,4]diazepin-3-yl]-2-methyl-N′-(2,2,3,3,3-pentafluoro-propyl)-malonamide] | 74.9% | 5.2 µL/min/mg | 49.3% | 32.5 µL/min/mg | – | – |
| CC(O)(C(=O)NCC(F)(F)C(F)(F)F)C(=O)N[C@H]1CN(C(=O)OCC(F)(F)F)c2cc(F)c(F)cc2N(CC(F)(F)F)C1=O (single isomer, unassigned) [Example 2] | 54.3% | 13.1 µL/min/mg | 83.0% | 6.5 µL/min/mg | – | – |
| CC(O)(C(=O)NCC(F)(F)C(F)(F)F)C(=O)N[C@H]1CN(CC(F)(F)F)c2ccc(F)cc2NC1=O (single isomer, unassigned) [Example 3, N-[(S)-7-Fluoro-4-oxo-1-(2,2,2-trifluoro-ethyl)-2,3,4,5-tetrahydro-1H-benzo[b][1,4]diazepin-3-yl]-(R or S)-2-hydroxy-2-methyl-N′-(2,2,3,3,3-pentafluoro-propyl)-malonamide and N-[(S)-7-Fluoro-4-oxo-1-(2,2,2-trifluoro-ethyl)-2,3,4,5-tetrahydro-1H-benzo[b][1,4]diazepin-3-yl]-(S or R)-2-hydroxy-2-methyl-N′-(2,2,3,3,3-pentafluoro-propyl)-malonamide] | 56.7% | 11.9 µL/min/mg | 20.1% | 126 µL/min/mg | – | – |
| CC(O)(C(=O)NCC(F)(F)C(F)(F)F)C(=O)N[C@H]1CN(CC(F)(F)F)c2ccccc2NC1=O (single isomer, unassigned) [Example 4, (R or S)-2-Hydroxy-2-methyl-N-[(S)-4-oxo-1-(2,2,2-trifluoro-ethyl)-2,3,4,5-tetrahydro-1H-benzo[b][1,4]diazepin-3-yl]-N′-(2,2,3,3,3-pentafluoro-propyl)-malonamide and (S or R)-2-Hydroxy-2-methyl-N-[(S)-4-oxo-1-(2,2,2-trifluoro-ethyl)-2,3,4,5-tetrahydro-1H-benzo[b][1,4]diazepin-3-yl]-N′-(2,2,3,3,3-pentafluoro-propyl)-malonamide] | 55.5% | 12.5 µL/min/mg | 19.6% | 130 µL/min/mg | 55.5% | 19.6% |
| CC(O)(C(=O)NCC(F)(F)C(F)(F)F)C(=O)N[C@H]1CN(C(=O)OCCCC(F)(F)F)c2ccccc2N(CCCC(F)(F)F)C1=O (single isomer, unassigned) [Example 13] | 87.4% | 2.2 µL/min/mg | 100% | – | – | – |
| CC(C(=O)NCC(F)(F)C(F)(F)F)C(=O)N[C@H]1CN(C(=O)OCC2CC2)c2ccccc2N(CC(F)(F)F)C1=O (some centres unmarked) [reference compound] | – | – | – | – | 26.8% | 47.6% |
